In ChEMBL document CHEMBL1201862, “PubChem BioAssay data set” (2004):
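All cell lines were grown in 96-well plates and treated with compound for 48 hours. Abbreviation: GI50, concentration required for 50% inhibition of growth.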 The source made the active and inactive calls. Cut-off read from the data, not from the text of the source: active = GI50 up to about 1.1 µM and inactive = higher. Peptide text beside a SMILES is read from it. * marks the point of attachment. Boc = CC(C)(C)OC(=O)*

Columns and labels:
Experiment in all cases: inhibition of tumour cell growth, NCI panel, 48 h
[1] = tested on: 786-0
[2] = tested on: CCRF-CEM
[3] = tested on: HOP-62
[4] = tested on: HOP-92
[5] = tested on: Hs-578T
[6] = tested on: LOX IMVI
[7] = tested on: NCI-H460
[8] = tested on: NCI-H522
[9] = tested on: NCI/ADR-RES
[10] = tested on: OVCAR-5
[11] = tested on: PC-3
[12] = tested on: SF-295
[13] = tested on: SK-MEL-28
[14] = tested on: SK-MEL-2
[15] = tested on: SR
[16] = tested on: SW-620
[17] = tested on: K562
[18] = tested on: Malme-3M
[19] = tested on: SK-OV-3
[20] = tested on: BT-549

| SMILES | GI50 [1] | GI50 [2] | GI50 [3] | GI50 [4] | GI50 [5] | GI50 [6] | GI50 [7] | GI50 [8] | GI50 [9] | GI50 [10] | GI50 [11] | GI50 [12] | GI50 [13] | GI50 [14] | GI50 [15] | GI50 [16] | GI50 [17] | GI50 [18] | GI50 [19] | GI50 [20] |
| --- | --- | --- | --- | --- | --- | --- | --- | --- | --- | --- | --- | --- | --- | --- | --- | --- | --- | --- | --- | --- |
| O=C(/C=C/c1ccc(Cl)c(Cl)c1)Oc1ccc(/C=C2\CCCCC2=O)cc1 | > 100 µM (inactive) | > 100 µM (inactive) | > 100 µM (inactive) | > 100 µM (inactive) | > 100 µM (inactive) | > 100 µM (inactive) | > 100 µM (inactive) | 91.8 µM (inactive) | > 100 µM (inactive) | > 100 µM (inactive) | > 100 µM (inactive) | > 100 µM (inactive) | > 100 µM (inactive) | > 100 µM (inactive) | > 100 µM (inactive) | > 100 µM (inactive) | – | – | – | – |
| CC1=[N+]([O-])C(C)(C)N(O)C1(C)C | > 100 µM (inactive) | > 100 µM (inactive) | > 100 µM (inactive) | > 100 µM (inactive) | – | > 100 µM (inactive) | > 100 µM (inactive) | > 100 µM (inactive) | > 100 µM (inactive) | > 100 µM (inactive) | > 100 µM (inactive) | > 100 µM (inactive) | > 100 µM (inactive) | > 100 µM (inactive) | > 100 µM (inactive) | > 100 µM (inactive) | > 100 µM (inactive) | > 100 µM (inactive) | > 100 µM (inactive) | – |
| CCN(CC)CCCNc1ccc2ncn3c4ccc(O)cc4c(=O)c1c23 | 0.643 µM (active) | 0.166 µM (active) | 0.989 µM (active) | 0.718 µM (active) | 0.39 µM (active) | 0.392 µM (active) | 0.105 µM (active) | 0.851 µM (active) | > 10 µM (inactive) | 1.98 µM (inactive) | 1.41 µM (inactive) | 1.63 µM (inactive) | 12.4 µM (inactive) | 3.7 µM (inactive) | 0.171 µM (active) | 0.578 µM (active) | 1.04 µM (active) | 4.78 µM (inactive) | 0.527 µM (active) | – |
| O=C(Nc1ccccc1)Nn1c(-c2cccs2)nc2ccc(I)cc2c1=O | 61.7 µM (inactive) | 20.5 µM (inactive) | 51.4 µM (inactive) | 6.3 µM (inactive) | – | 19.2 µM (inactive) | 26.2 µM (inactive) | 14.3 µM (inactive) | 30.6 µM (inactive) | 27.7 µM (inactive) | 27.4 µM (inactive) | 42.6 µM (inactive) | 20.5 µM (inactive) | – | 16.8 µM (inactive) | 39.4 µM (inactive) | 0.022 µM (active) | – | 20.9 µM (inactive) | 10.5 µM (inactive) |
| C[C@@H]1O[C@@H]2OCC[C@@H]2C2=C1C(=O)c1ccccc1C2=O | 12.3 µM (inactive) | 6.87 µM (inactive) | 17.3 µM (inactive) | 4.38 µM (inactive) | 28.1 µM (inactive) | 1.92 µM (inactive) | 16.7 µM (inactive) | 6.65 µM (inactive) | 2.02 µM (inactive) | 1.81 µM (inactive) | 3.65 µM (inactive) | 15.8 µM (inactive) | 13.9 µM (inactive) | 11 µM (inactive) | 4.24 µM (inactive) | 4.04 µM (inactive) | 10.1 µM (inactive) | 2.19 µM (inactive) | 28.4 µM (inactive) | – |
| O=C(NO)c1ccc(C(=O)NO)cc1 | > 100 µM (inactive) | 31.3 µM (inactive) | 62.2 µM (inactive) | 82.2 µM (inactive) | > 100 µM (inactive) | > 100 µM (inactive) | > 100 µM (inactive) | – | 3.21 µM (inactive) | > 100 µM (inactive) | > 100 µM (inactive) | > 100 µM (inactive) | > 100 µM (inactive) | – | 27.4 µM (inactive) | 80.9 µM (inactive) | 38.4 µM (inactive) | 9.27 µM (inactive) | 12 µM (inactive) | – |
| CC(=O)N1N=C(c2ccccc2Nc2ccccc2C2=NN(C(C)=O)C(c3ccccc3)O2)OC1c1ccccc1 (configuration not stated) | > 100 µM (inactive) | – | > 100 µM (inactive) | 93.8 µM (inactive) | – | 81.8 µM (inactive) | 26.7 µM (inactive) | 36.1 µM (inactive) | 55.6 µM (inactive) | > 100 µM (inactive) | 10.4 µM (inactive) | 32.8 µM (inactive) | > 100 µM (inactive) | 73.3 µM (inactive) | > 100 µM (inactive) | 99.8 µM (inactive) | 30.7 µM (inactive) | > 100 µM (inactive) | 30.3 µM (inactive) | 87.5 µM (inactive) |
| COC1(OC)N=C(N)C2(C#N)C(C)=C3NCN(C)N=C3C12C#N (configuration not stated) | > 100 µM (inactive) | > 10 µM (inactive) | > 100 µM (inactive) | > 100 µM (inactive) | > 100 µM (inactive) | > 100 µM (inactive) | – | > 100 µM (inactive) | > 100 µM (inactive) | > 100 µM (inactive) | > 100 µM (inactive) | > 100 µM (inactive) | > 100 µM (inactive) | > 100 µM (inactive) | – | > 100 µM (inactive) | > 100 µM (inactive) | > 100 µM (inactive) | > 100 µM (inactive) | – |
| COc1ccc2cc(C(=O)NCCc3ccccc3)ccc2c1OC | 39.4 µM (inactive) | – | 32.1 µM (inactive) | 49.1 µM (inactive) | 56.4 µM (inactive) | > 100 µM (inactive) | > 100 µM (inactive) | – | 84.3 µM (inactive) | > 100 µM (inactive) | 91.2 µM (inactive) | 69.2 µM (inactive) | > 100 µM (inactive) | 71.9 µM (inactive) | 49.9 µM (inactive) | > 100 µM (inactive) | 83.6 µM (inactive) | > 100 µM (inactive) | 65.3 µM (inactive) | – |
| COc1cc(C(=O)C/C(CCC(=O)Nc2ccccc2[N+](=O)[O-])=N\NC(N)=O)ccc1O | > 100 µM (inactive) | > 100 µM (inactive) | > 100 µM (inactive) | > 100 µM (inactive) | – | > 100 µM (inactive) | > 100 µM (inactive) | > 100 µM (inactive) | – | > 100 µM (inactive) | – | > 100 µM (inactive) | > 100 µM (inactive) | > 100 µM (inactive) | > 100 µM (inactive) | > 100 µM (inactive) | > 100 µM (inactive) | > 100 µM (inactive) | > 100 µM (inactive) | – |
| COc1c(C(=O)O)oc2c(OC)cccc12 | > 100 µM (inactive) | > 100 µM (inactive) | > 100 µM (inactive) | > 100 µM (inactive) | – | > 100 µM (inactive) | > 100 µM (inactive) | > 100 µM (inactive) | – | > 100 µM (inactive) | – | > 100 µM (inactive) | > 100 µM (inactive) | > 100 µM (inactive) | > 100 µM (inactive) | > 100 µM (inactive) | > 100 µM (inactive) | > 100 µM (inactive) | > 100 µM (inactive) | – |
| CC(=O)Nc1ccc(-c2nnc(SCC(=O)Nc3ccccc3[N+](=O)[O-])o2)cc1 | > 100 µM (inactive) | > 100 µM (inactive) | > 100 µM (inactive) | > 100 µM (inactive) | – | > 100 µM (inactive) | > 100 µM (inactive) | 45.9 µM (inactive) | – | > 100 µM (inactive) | – | 98.6 µM (inactive) | > 100 µM (inactive) | > 100 µM (inactive) | 40.7 µM (inactive) | > 100 µM (inactive) | 93.1 µM (inactive) | > 100 µM (inactive) | > 100 µM (inactive) | – |
| CC(C)(C)OC(=O)NCC(=O)N1CCN(C(=O)CNC(=O)OC(C)(C)C)CC1 | > 100 µM (inactive) | > 100 µM (inactive) | > 100 µM (inactive) | > 100 µM (inactive) | – | > 100 µM (inactive) | – | 2.55 µM (inactive) | > 100 µM (inactive) | > 100 µM (inactive) | > 100 µM (inactive) | > 100 µM (inactive) | > 100 µM (inactive) | > 100 µM (inactive) | > 100 µM (inactive) | > 100 µM (inactive) | > 100 µM (inactive) | – | > 100 µM (inactive) | > 100 µM (inactive) |
| O=[N+]([O-])c1cc2c(c3nonc13)OCCCCO2 | 2.02 µM (inactive) | 1.5 µM (inactive) | 4.37 µM (inactive) | 12.7 µM (inactive) | 12.3 µM (inactive) | 2.81 µM (inactive) | 3.76 µM (inactive) | 4.39 µM (inactive) | 10.5 µM (inactive) | 12.1 µM (inactive) | 14.9 µM (inactive) | 17.5 µM (inactive) | 9.89 µM (inactive) | 13.8 µM (inactive) | – | 5.86 µM (inactive) | 3.64 µM (inactive) | 3.66 µM (inactive) | 26.4 µM (inactive) | – |
| C#CCN(Cc1ccc2[nH]c(N)nc(=O)c2c1)c1ccc(C(=O)NC(CCC(=O)O)C(=O)O)cc1 (configuration not stated) | 6.38 µM (inactive) | 6.5 µM (inactive) | 23.4 µM (inactive) | 28.7 µM (inactive) | – | 3.24 µM (inactive) | 6.95 µM (inactive) | – | 36.6 µM (inactive) | > 100 µM (inactive) | > 100 µM (inactive) | 34 µM (inactive) | > 100 µM (inactive) | – | > 100 µM (inactive) | > 100 µM (inactive) | – | 47.5 µM (inactive) | > 100 µM (inactive) | 8.11 µM (inactive) |
| COC(=O)C(Cc1c[nH]c2ccccc12)NC(=O)C(Cc1c[nH]c2ccccc12)NC(=O)C(Cc1c[nH]c2ccccc12)NC(=O)C(Cc1c[nH]c2ccccc12)NC(=O)C(Cc1c[nH]c2ccccc12)NC(=O)OC(C)(C)C (configuration not stated) (Boc-WWWWW-OMe; configuration not given here) | 60 µM (inactive) | 74 µM (inactive) | > 100 µM (inactive) | – | – | 67.6 µM (inactive) | 84.1 µM (inactive) | 46 µM (inactive) | – | > 100 µM (inactive) | > 100 µM (inactive) | – | 55.7 µM (inactive) | 45.2 µM (inactive) | 32.4 µM (inactive) | > 100 µM (inactive) | 36.8 µM (inactive) | 94.2 µM (inactive) | – | 91.8 µM (inactive) |
